Key:
Experiment in all cases: relative viability (nuclei count vs DMSO), 5 days (fraction); higher = more cells survive
IMD-0354 + Foretinib = compound: O=C(Nc1cc(C(F)(F)F)cc(C(F)(F)F)c1)c1cc(Cl)ccc1O [IMD-0354] + COc1cc2c(Oc3ccc(NC(=O)C4(C(=O)Nc5ccc(F)cc5)CC4)cc3F)ccnc2cc1OCCCN1CCOCC1 [Foretinib] (partner 0.25 µM)
Procedure, shortened: (§1)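 Cells from lung cancer lines were seeded into 1536-well plates and, one day later, dosed by pin tool. Treatments were either a single drug or a fixed dose of an anchor drug with five library-drug doses (not always all listed) in √10 steps. After 5 days, nuclei were stained in a one-step fixation (final 0.05% Triton X-100, 1% formaldehyde, 1 ug/ml Hoechst) and counted on 4× images, and relative viability is the treated-to-vehicle nuclei ratio, as the median of duplicate plates.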

IMD-0354 + Crizotinib = compound: O=C(Nc1cc(C(F)(F)F)cc(C(F)(F)F)c1)c1cc(Cl)ccc1O [IMD-0354] + C[C@@H](Oc1cc(-c2cnn(C3CCNCC3)c2)cnc1N)c1c(Cl)ccc(F)c1Cl [Crizotinib] (partner 1 µM)
Procedure, shortened: as §1

CX-5461 + Dasatinib = compound: Cc1cnc(CNC(=O)c2c(=O)c3ccc(N4CCCN(C)CC4)nc3n3c2sc2ccccc23)cn1 [CX-5461] + Cc1nc(Nc2ncc(C(=O)Nc3c(C)cccc3Cl)s2)cc(N2CCN(CCO)CC2)n1 [Dasatinib] (partner 0.075 µM)
Procedure, shortened: as §1

CX-5461 + Alpelisib = compound: Cc1cnc(CNC(=O)c2c(=O)c3ccc(N4CCCN(C)CC4)nc3n3c2sc2ccccc23)cn1 [CX-5461] + Cc1nc(NC(=O)N2CCC[C@H]2C(N)=O)sc1-c1ccnc(C(C)(C)C(F)(F)F)c1 [Alpelisib] (partner 2 µM)
Procedure, shortened: as §1

Row | Cell Line | relative viability (IMD-0354 + Foretinib; first compound 0.04 µM) | relative viability (IMD-0354 + Foretinib; first compound 0.1265 µM) | relative viability (IMD-0354 + Foretinib; first compound 0.4 µM) | relative viability (IMD-0354 + Foretinib; first compound 1.265 µM) | relative viability (IMD-0354 + Foretinib; first compound 4 µM) | relative viability (IMD-0354 + Crizotinib; first compound 0.04 µM) | relative viability (IMD-0354 + Crizotinib; first compound 0.1265 µM) | relative viability (IMD-0354 + Crizotinib; first compound 0.4 µM) | relative viability (IMD-0354 + Crizotinib; first compound 1.265 µM) | relative viability (IMD-0354 + Crizotinib; first compound 4 µM) | relative viability (CX-5461 + Dasatinib; first compound 0.01 µM) | relative viability (CX-5461 + Dasatinib; first compound 0.03162 µM) | relative viability (CX-5461 + Dasatinib; first compound 0.1 µM) | relative viability (CX-5461 + Dasatinib; first compound 0.3162 µM) | relative viability (CX-5461 + Dasatinib; first compound 1 µM) | relative viability (CX-5461 + Alpelisib; first compound 0.01 µM) | relative viability (CX-5461 + Alpelisib; first compound 0.03162 µM) | relative viability (CX-5461 + Alpelisib; first compound 0.1 µM) | relative viability (CX-5461 + Alpelisib; first compound 0.3162 µM) | relative viability (CX-5461 + Alpelisib; first compound 1 µM)
1 | HCC-78 | 0.554 | 0.574 | 0.488 | 0.701 | 0.322 | 0.317 | 0.323 | 0.251 | 0.37 | 0.189 | 0.431 | 0.381 | 0.406 | 0.421 | 0.322 | 0.338 | 0.328 | 0.348 | 0.263 | 0.334
2 | HCC-366 | 0.837 | 1 | 0.441 | 0.216 | 0.046 | 0.586 | 0.858 | 0.225 | 0.105 | 0.0509 | 0.678 | 0.597 | 0.627 | 0.68 | 0.106 | 0.591 | 0.529 | 0.33 | 0.507 | 0.234
3 | HCC-827 | 1.05 | 0.978 | 0.625 | 0.282 | 0.19 | 1 | 0.881 | 0.736 | 0.498 | 0.263 | 0.346 | 0.277 | 0.349 | 0.35 | 0.298 | 0.996 | 0.998 | 1.02 | 0.977 | 0.989
4 | HOP-62 | 1.13 | 1.03 | 0.42 | 0.449 | 0.118 | 0.999 | 1.09 | 0.926 | 0.546 | 0.168 | 0.724 | 0.661 | 0.704 | 0.675 | 0.489 | 1.12 | 1.09 | 1 | 1.35 | 1.05
5 | IA-LM | 1.17 | 1.17 | 0.384 | 0.42 | 0.0844 | 0.948 | 0.974 | 0.51 | 0.0996 | 0.142 | – | – | – | – | – | 0.873 | 0.715 | 0.593 | 0.837 | 0.316
6 | LC-2-ad | 0.939 | 0.885 | 0.524 | 0.249 | 0.205 | 0.431 | 0.466 | 0.37 | 0.358 | 0.239 | 0.59 | 0.713 | 0.546 | 0.406 | 0.27 | 0.885 | 0.9 | 0.805 | 0.981 | 0.561
7 | LCLC-97TM1 | 0.929 | 0.824 | 0.673 | 0.34 | 0.164 | – | 0.432 | 0.211 | 0.265 | 0.146 | 0.755 | 0.873 | 0.791 | – | 0.701 | 0.233 | 0.269 | 0.217 | – | 0.245
8 | LCLC-103H | 0.745 | 0.865 | 0.45 | 0.335 | 0.216 | 1.02 | 1.18 | 0.734 | 0.703 | 0.352 | 0.527 | 0.583 | 0.384 | 0.609 | 0.53 | 1.04 | 0.925 | 0.985 | 1.03 | 0.921
9 | LK-2 | 1.76 | 1.14 | 0.515 | 1.11 | 0.222 | 0.22 | 0.201 | 0.28 | 0.29 | 0.244 | 0.258 | 0.229 | 0.251 | – | 0.195 | – | 1.22 | 1.37 | – | 0.864
10 | LOU-NH91 | 0.976 | 0.981 | 0.575 | 0.154 | 0.134 | 0.754 | 0.732 | 0.538 | 0.345 | 0.287 | 0.677 | 0.511 | 0.602 | – | 0.532 | 0.812 | 0.739 | 0.703 | 0.677 | 0.64
11 | NCI-H522 | – | – | – | – | – | – | – | – | – | – | 0.886 | 1.04 | 0.916 | – | 0.742 | – | – | – | – | –
12 | NCI-H1299 | 1.03 | 1.06 | 0.787 | 0.267 | 0.179 | 0.943 | 1 | 0.518 | 0.294 | 0.166 | – | – | – | – | – | 1.04 | 1.04 | 1.08 | 1.1 | 0.992
13 | NCI-H1395 | 1.08 | 0.969 | 0.98 | 0.449 | 0.306 | – | – | – | – | – | 0.402 | 0.414 | 0.418 | 0.39 | 0.367 | 1.31 | 0.935 | 0.897 | 0.704 | 0.561
14 | NCI-H1623 | 0.896 | 0.908 | 0.764 | 0.687 | 0.457 | – | – | – | – | – | 0.524 | 0.473 | 0.521 | 0.568 | 0.534 | – | – | – | – | –
15 | NCI-H1650 | 1.32 | 1.1 | 0.581 | 0.207 | 0.245 | 0.921 | 0.793 | 0.578 | 0.19 | 0.205 | 0.355 | 0.326 | 0.195 | 0.305 | 0.14 | – | – | – | – | –
16 | NCI-H1703 | 0.407 | 0.347 | 0.368 | 0.299 | 0.16 | 0.9 | 0.626 | 0.494 | 0.254 | 0.215 | – | – | – | – | – | 0.314 | 0.419 | 0.28 | 0.332 | 0.267
17 | NCI-H1792 | – | – | – | – | – | 1.14 | 0.959 | 0.696 | 0.512 | 0.391 | 0.738 | 0.893 | 0.825 | 0.95 | 0.613 | 0.774 | 0.744 | 0.706 | 0.898 | 0.602
18 | NCI-H1793 | 0.844 | 0.622 | 0.305 | 0.22 | 0.202 | – | – | – | – | – | 0.347 | 0.409 | 0.368 | – | 0.343 | 0.769 | 0.668 | 0.772 | 0.71 | 0.726
19 | NCI-H2342 | 1.08 | 0.98 | 0.794 | 0.735 | 0.453 | – | – | – | – | – | 0.311 | 0.317 | 0.308 | 0.335 | 0.285 | – | – | – | – | –
20 | SW 900 | 0.886 | 0.787 | 0.444 | 0.562 | 0.246 | – | – | – | – | – | 0.45 | 0.541 | 0.701 | 0.4 | 0.211 | – | – | – | – | –

Source: the supplement of paper PMC10307832
